Values after ≈ are worked out from the molar mass of the structure shown.
Columns and labels:
Type in all cases: functional
[1] = system: Staphylococcus aureus; test: Antibacterial activity against methicillin-resistant Staphylococcus aureus MSC03571
[2] = system: Escherichia coli; test: Antibacterial activity against Escherichia coli NIH JC2
[3] = system: Pseudomonas aeruginosa; test: Antibacterial activity against Pseudomonas aeruginosa PA01
[4] = system: Pseudomonas aeruginosa; test: Antibacterial activity against Pseudomonas aeruginosa GN315
[5] = system: Pseudomonas aeruginosa; test: Antibacterial activity against Pseudomonas aeruginosa N101
[6] = system: Staphylococcus aureus; test: Antibacterial activity against Staphylococcus aureus 209P JC-1
[7] = system: Staphylococcus aureus; test: Antibacterial activity against methicillin-resistant Staphylococcus aureus MF490
[8] = system: Staphylococcus aureus; test: Antibacterial activity against methicillin resistant Staphylococcus aureus isolates
[9] = system: Pseudomonas aeruginosa; test: Antibacterial activity against Pseudomonas aeruginosa isolates

`NCC[C@H](O)C(=O)N[C@@H]1C[C@H](N)[C@@H](O[C@H]2O[C@H](CN)CC[C@H]2N)[C@@H](Cl)[C@H]1O[C@H]1O[C@H](CO)[C@H](O)[C@H](N)[C@H]1O` showed an MIC [1] of 2 µg/mL (≈ 3.5 µM), an MIC [2] of 1 µg/mL (≈ 1.75 µM) and an MIC [3] of 4 µg/mL (≈ 7 µM). For the same compound, the MIC [4] was greater than 32 µg/mL, the MIC [5] was 0.5 µg/mL (≈ 0.876 µM) and the MIC [6] was 0.13 µg/mL (≈ 0.228 µM). It also gave an MIC [7] of 2 µg/mL (≈ 3.5 µM).
`NCC[C@H](O)C(=O)N[C@@H]1C[C@H](N)[C@@H](O[C@H]2O[C@H](CN)CC[C@H]2N)[C@H](O)[C@H]1O[C@H]1O[C@H](CO)[C@H](O)[C@H](N)[C@H]1O` showed an MIC [1] of 16 µg/mL (≈ 29 µM), an MIC [2] of 1 µg/mL (≈ 1.81 µM) and an MIC [3] of 4 µg/mL (≈ 7.24 µM). The MIC [4] was 32 µg/mL (≈ 57.9 µM), the MIC [5] was 0.25 µg/mL (≈ 0.452 µM) and the MIC [6] was 0.13 µg/mL (≈ 0.235 µM). For the same compound, the MIC [7] was 32 µg/mL (≈ 57.9 µM).
`NCC[C@H](O)C(=O)N[C@@H]1C[C@H](N)[C@@H](O[C@H]2O[C@H](CN)CC[C@H]2N)[C@@H](O)[C@H]1O[C@H]1O[C@H](CO)[C@H](O)[C@H](N)[C@H]1O` showed an MIC [1] of 1 µg/mL (≈ 1.81 µM), an MIC [2] of 0.5 µg/mL (≈ 0.905 µM) and an MIC [3] of 1 µg/mL (≈ 1.81 µM). For the same compound, the MIC50 [8] was 0.25 µg/mL (≈ 0.452 µM), the MIC90 [8] was 0.25 µg/mL (≈ 0.452 µM) and the MIC [4] was 16 µg/mL (≈ 29 µM). It also gave an MIC [5] of 0.25 µg/mL (≈ 0.452 µM), an MIC [6] of 0.06 µg/mL (≈ 0.109 µM) and an MIC [7] of 1 µg/mL (≈ 1.81 µM). For the same compound, the MIC50 [9] was 1 µg/mL (≈ 1.81 µM) and the MIC90 [9] was 4 µg/mL (≈ 7.24 µM).
For `NCC[C@H](O)C(=O)N[C@@H]1C[C@H](N)[C@@H](O[C@H]2O[C@H](CN)CC[C@H]2N)[C@@H](F)[C@H]1O[C@H]1O[C@H](CO)[C@H](O)[C@H](N)[C@H]1O`, the MIC [1] was 2 µg/mL (≈ 3.61 µM), the MIC [2] was 1 µg/mL (≈ 1.8 µM) and the MIC [3] was 2 µg/mL (≈ 3.61 µM). The MIC [4] was 32 µg/mL (≈ 57.7 µM), the MIC [5] was 0.5 µg/mL (≈ 0.902 µM) and the MIC [6] was 0.06 µg/mL (≈ 0.108 µM). For the same compound, the MIC [7] was 4 µg/mL (≈ 7.21 µM).
For `NCC[C@H](O)C(=O)N[C@@H]1C[C@H](N)[C@@H](O[C@H]2O[C@H](CN)CC[C@H]2N)[C@H](O)[C@H]1O[C@H]1O[C@H](CO)C[C@H](N)[C@H]1O`, the MIC [1] was 64 µg/mL (≈ 119 µM), the MIC [2] was 2 µg/mL (≈ 3.73 µM) and the MIC [3] was 4 µg/mL (≈ 7.45 µM). The MIC [4] was 32 µg/mL (≈ 59.6 µM), the MIC [5] was 0.5 µg/mL (≈ 0.932 µM) and the MIC [6] was 0.13 µg/mL (≈ 0.242 µM). The MIC [7] was greater than 64 µg/mL.
`[N-]=[N+]=N[C@@H]1[C@H](N)[C@@H](O)[C@@H](O[C@@H]2[C@@H](O)[C@H](O[C@H]3O[C@H](CN)CC[C@H]3N)[C@@H](N)C[C@H]2NC(=O)[C@@H](O)CCN)O[C@@H]1CO` showed an MIC [1] of 128 µg/mL (≈ 222 µM), an MIC [2] of 2 µg/mL (≈ 3.46 µM) and an MIC [3] of 16 µg/mL (≈ 27.7 µM). For the same compound, the MIC [4] was 64 µg/mL (≈ 111 µM), the MIC [5] was 0.5 µg/mL (≈ 0.866 µM) and the MIC [6] was 0.13 µg/mL (≈ 0.225 µM). The MIC [7] was greater than 128 µg/mL.
Work on `NCC[C@H](O)C(=O)N[C@@H]1C[C@H](N)[C@@H](O[C@H]2O[C@H](CN)CC[C@H]2N)[C@@H](N)[C@H]1O[C@H]1O[C@H](CO)[C@H](O)[C@H](N)[C@H]1O` yielded an MIC [1] of 4 µg/mL (≈ 7.25 µM), an MIC [2] of 2 µg/mL (≈ 3.63 µM) and an MIC [3] of 4 µg/mL (≈ 7.25 µM). For the same compound, the MIC [4] was greater than 64 µg/mL, the MIC [5] was 1 µg/mL (≈ 1.81 µM) and the MIC [6] was 0.25 µg/mL (≈ 0.453 µM). It also gave an MIC [7] of 4 µg/mL (≈ 7.25 µM).
`[N-]=[N+]=N[C@H]1[C@@H](O[C@H]2O[C@H](CO)[C@H](O)[C@H](N)[C@H]2O)[C@H](NC(=O)[C@@H](O)CCN)C[C@H](N)[C@H]1O[C@H]1O[C@H](CN)CC[C@H]1N` gave an MIC [1] of 4 µg/mL (≈ 6.92 µM), an MIC [2] of 1 µg/mL (≈ 1.73 µM) and an MIC [3] of 8 µg/mL (≈ 13.8 µM). For the same compound, the MIC [4] was 128 µg/mL (≈ 222 µM), the MIC [5] was 0.5 µg/mL (≈ 0.866 µM) and the MIC [6] was 0.25 µg/mL (≈ 0.433 µM). It also gave an MIC [7] of 4 µg/mL (≈ 6.92 µM).
`NCC[C@H](O)C(=O)N[C@@H]1C[C@H](N)[C@@H](O[C@H]2O[C@H](CN)CC[C@H]2N)[C@H](O)[C@H]1O[C@H]1O[C@@H](CO)[C@@H](O)[C@H](N)[C@H]1O` showed an MIC [1] of 2 µg/mL (≈ 3.62 µM), an MIC [2] of 1 µg/mL (≈ 1.81 µM) and an MIC [3] of 2 µg/mL (≈ 3.62 µM). For the same compound, the MIC [4] was 8 µg/mL (≈ 14.5 µM), the MIC [5] was 0.25 µg/mL (≈ 0.452 µM) and the MIC [6] was 0.06 µg/mL (≈ 0.109 µM). The MIC [7] was 2 µg/mL (≈ 3.62 µM).
`NCC[C@H](O)C(=O)N[C@@H]1C[C@H](N)[C@@H](O[C@H]2O[C@H](CN)CC[C@H]2N)[C@H](O)[C@H]1O[C@H]1O[C@H](CO)[C@@H](O)[C@H](N)[C@H]1O` [ARBEKACIN] showed an MIC [1] of 16 µg/mL (≈ 29 µM), an MIC [2] of 1 µg/mL (≈ 1.81 µM) and an MIC [3] of 2 µg/mL (≈ 3.62 µM). It also gave an MIC50 [8] of 0.5 µg/mL (≈ 0.905 µM), an MIC90 [8] of 2 µg/mL (≈ 3.62 µM) and an MIC [4] of 16 µg/mL (≈ 29 µM). The MIC [5] was 0.25 µg/mL (≈ 0.452 µM), the MIC [6] was 0.06 µg/mL (≈ 0.109 µM) and the MIC [7] was 64 µg/mL (≈ 116 µM). The MIC50 [9] was 2 µg/mL (≈ 3.62 µM) and the MIC90 [9] was 16 µg/mL (≈ 29 µM).
`CNC[C@@H]1CC[C@@H](N)[C@@H](O[C@H]2[C@@H](O)[C@@H](O[C@H]3O[C@H](CO)[C@H](O)[C@H](N)[C@H]3O)[C@H](NC(=O)[C@@H](O)CCN)C[C@@H]2N)O1` was tested, and the MIC [1] was 1 µg/mL (≈ 1.76 µM), the MIC [2] was 1 µg/mL (≈ 1.76 µM) and the MIC [3] was 2 µg/mL (≈ 3.53 µM). It also gave an MIC [4] of 4 µg/mL (≈ 7.06 µM), an MIC [5] of 0.5 µg/mL (≈ 0.882 µM) and an MIC [6] of 0.13 µg/mL (≈ 0.229 µM). It also gave an MIC [7] of 4 µg/mL (≈ 7.06 µM).
`NCC[C@H](O)C(=O)N[C@@H]1C[C@H](N)[C@@H](O[C@H]2O[C@H](CN)CC[C@H]2N)[C@H](O)[C@H]1O[C@H]1O[C@H](CO)[C@H](N)[C@H](N)[C@H]1O` gave an MIC [1] greater than 128 µg/mL, an MIC [2] of 16 µg/mL (≈ 29 µM) and an MIC [3] of 64 µg/mL (≈ 116 µM). For the same compound, the MIC [4] was greater than 128 µg/mL, the MIC [5] was 8 µg/mL (≈ 14.5 µM) and the MIC [6] was 4 µg/mL (≈ 7.25 µM). For the same compound, the MIC [7] was greater than 128 µg/mL.
